For series [1], the target named is T1, Programmed cell death protein 1/Programmed cell death 1 ligand 1 (Homo sapiens, UniProt Q9NZQ7). Put plainly: Inhibition of human Fc-tagged PD1 N-terminal domain (Leu25 to Gln167 residues) expressed in HEK293 cells/human His-tagged PDL1 (Phe19 to Arg238 residues) expressed in HEK293 cells protein-protein interaction after 1 hr by APC-labeled anti-His antibody/Eu-labeled anti-human IgG based HTRF assay. It is filed as cell-based.

The target in series [2] is Programmed cell death 1 ligand 1 (Homo sapiens) (UniProt Q9NZQ7). Put plainly: Binding affinity to 15N-labelled human PDL1 assessed as induction of oligomerization by 1H-NMR spectra analysis.
Chain of Programmed cell death 1 ligand 1 (Homo sapiens) (Q9NZQ7 whole entry): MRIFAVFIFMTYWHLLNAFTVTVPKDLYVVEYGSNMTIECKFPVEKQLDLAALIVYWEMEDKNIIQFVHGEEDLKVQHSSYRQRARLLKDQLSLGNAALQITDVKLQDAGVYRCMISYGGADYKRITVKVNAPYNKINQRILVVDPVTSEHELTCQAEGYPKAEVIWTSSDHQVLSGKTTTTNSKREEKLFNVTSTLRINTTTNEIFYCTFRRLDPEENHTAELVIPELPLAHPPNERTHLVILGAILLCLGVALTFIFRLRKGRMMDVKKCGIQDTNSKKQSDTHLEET
Series [3] is described as follows: Toxicity weighted activity index, ratio of GI50 for Cytotoxicity against human Jurkat T cell expressing human PD1 co-cultured with CHOK1 cells stably expressing human PDL1 to EC50 for inhibition of human PD1 stably expressed in human Jurkat T cells co-expressing NFAT-induced luciferase/human PDL1 stably expressed in CHOK1 cells co-expressing aAPC protein-protein interaction. It is filed as cell-based. The following applies: read-out: Ratio GI50/EC50.

Series [4] is described as follows: Cytotoxicity against CHOK1 cells stably expressing human PDL1 co-cultured with human Jurkat T cell expressing human PD1 measured after 24 hrs by XTT assay. The following applies: chinese hamster; read-out: MNCC. The series is classed as cell-based, Cricetulus griseus, CHO-K1.
Series [5] can be described thus: Toxicity weighted activity index, ratio of GI50 for Cytotoxicity against human Jurkat T cell expressing human PD1 co-cultured with CHOK1 cells stably expressing human PDL1 to EC50 for inhibition of PD1/PDL1 interaction in human Jurkat cells co-cultured with human U2OS cells expressing PDL1. The following applies: read-out: Ratio GI50/EC50. It is filed as cell-based.

Series [6] is described as follows: Toxicity weighted activity index, ratio of GI50 for cytotoxicity against CHOK1 cells stably expressing human PDL1 co-cultured with human Jurkat T cell expressing human PD1 to EC50 for inhibition of human PD1 stably expressed in human Jurkat T cells co-expressing NFAT-induced luciferase/human PDL1 stably expressed in CHOK1 cells co-expressing aAPC protein-protein interaction. It is filed as cell-based. The following applies: chinese hamster; read-out: Ratio GI50/EC50.

A short description of series [7]: Cytotoxicity against CHOK1 cells stably expressing human PDL1 co-cultured with human Jurkat T cell expressing human PD1 assessed as growth inhibition measured after 24 hrs by XTT assay. The following applies: chinese hamster. It is filed as cell-based, Cricetulus griseus, CHO-K1.
Series [8] is described as follows: Cytotoxicity against human Jurkat T cell expressing human PD1 co-cultured with CHOK1 cells stably expressing human PDL1 measured after 24 hrs by XTT assay. The series is classed as cell-based. The following applies: read-out: MNCC.
Series [9] addresses T1, Programmed cell death protein 1/Programmed cell death 1 ligand 1. Put plainly: Inhibition of human PD1 stably expressed in human Jurkat T cells co-expressing NFAT-induced luciferase/human PDL1 stably expressed in CHOK1 cells co-expressing aAPC protein-protein interaction assessed as increase in NFAT signaling measured after 6 hrs by bio-glo luciferase reporter gene assay. The series is classed as cell-based.

The target of series [10] is Programmed cell death 1 ligand 1 (Homo sapiens) (UniProt Q9NZQ7). Put plainly: Binding affinity to 15N-labelled human PDL1 assessed as induction of protein oligomerization by 1H-15N HMQC spectra analysis.
Series [11] concerns the target T1, Programmed cell death protein 1/Programmed cell death 1 ligand 1. Put plainly: (§1) Inhibition of PD1/PDL1 interaction in human Jurkat cells co-cultured with human U2OS cells expressing PDL1 assessed as reduction in SHP1 recruitment preincubated with U2OS cells for 60 mins followed by Jurkat cell addition and measured after 2 hrs by Pathhunter chemiluminescent assay. It is filed as cell-based.

A short description of series [12]: Toxicity weighted activity index, ratio of GI50 for cytotoxicity against CHOK1 cells stably expressing human PDL1 co-cultured with human Jurkat T cell expressing human PD1 to EC50 for inhibition of PD1/PDL1 interaction in human Jurkat cells co-cultured with human U2OS cells expressing PDL1. It is filed as cell-based. The following applies: chinese hamster; read-out: Ratio GI50/EC50.

Series [13] in a line: Cytotoxicity against human Jurkat T cell expressing human PD1 co-cultured with CHOK1 cells stably expressing human PDL1 assessed as growth inhibition measured after 24 hrs by XTT assay. It is filed as cell-based.
In series [14] the target is Programmed cell death protein 1/Programmed cell death 1 ligand 1 (Homo sapiens) (UniProt Q15116+Q9NZQ7). Described as §1. It is filed as cell-based.

SMILES strings stand for the structures. The source made the active and inactive calls. The calls are words filed in the database; no cut-off is given here. A value given as a limit tells only on which side of the number the result lay.

Ten compounds from ChEMBL document CHEMBL4311949, “Design, Synthesis, Evaluation, and Structural Studies of C2-Symmetric Small Molecule Inhibitors of Programmed Cell Death-1/Programmed Death-Ligand 1 Protein-Protein Interaction” (J Med Chem, 2019) can be followed below.

T1 sequence (Q15116 whole entry, the tested form may be a part): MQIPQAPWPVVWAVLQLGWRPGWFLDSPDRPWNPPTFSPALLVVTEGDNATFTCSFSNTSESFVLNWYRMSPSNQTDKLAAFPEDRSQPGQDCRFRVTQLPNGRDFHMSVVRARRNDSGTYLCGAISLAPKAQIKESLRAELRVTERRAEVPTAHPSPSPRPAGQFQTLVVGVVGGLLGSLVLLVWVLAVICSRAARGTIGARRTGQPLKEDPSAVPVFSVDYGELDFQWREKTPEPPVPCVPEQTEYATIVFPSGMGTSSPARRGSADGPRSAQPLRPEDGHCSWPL
T1 sequence (Q9NZQ7 whole entry, the tested form may be a part): as the sequence (Q9NZQ7 whole entry) above

`CC(=O)NCCNCc1ccc(OCc2cccc(COc3ccc(CNCCNC(C)=O)c(OCc4cncc(C#N)c4)c3)c2)cc1OCc1cncc(C#N)c1`: in series [1], the half-maximal inhibitory concentration (IC50) was more than 10 µM.
In the case of `CC(=O)NCCNCc1cc(C)c(OCc2cccc(-c3ccccc3)c2C)cc1OCc1cncc(C#N)c1`, the result in series [2] and in [10] was Active. Further, the selectivity ratio is 2.7 in series [3], 37 in [5], 2.7 in series [6] and 37 in series [12]. In addition, the MNTC at 24 h in series [4] and in series [8] was 2560 nM each time. For the same compound, the GI50 at 24 h in [7] and in [13] was 8.1 µM throughout. The same compound yielded an IC50 in series [1] of 0.0025 µM. The values for the 50% effective concentration (EC50) in series [9] and in [11] were 3 µM and 0.219 µM, respectively.
The compound `CC(=O)NCCNCc1ccc(OCc2ccc3cc(COc4ccc(CNCCNC(C)=O)c(OCc5cncc(C#N)c5)c4)ccc3c2)cc1OCc1cncc(C#N)c1` had a concentration for half-maximal inhibition (IC50) in series [1] of 1.17 µM.
In [1], `CC(=O)NCCNCc1ccc(OCc2ccc(COc3ccc(CNCCNC(C)=O)c(OCc4cncc(C#N)c4)c3)c3ccccc23)cc1OCc1cncc(C#N)c1` registered an IC50 of 0.462 µM.
In turn, `CCNCc1cc(C)c(OCc2cccc(-c3cccc(COc4cc(OCc5cncc(C#N)c5)c(CNCC)cc4C)c3C)c2C)cc1OCc1cncc(C#N)c1` gave a 50% inhibitory concentration (IC50) in [1] of 0.0038 µM.
`CCNCc1cc(C)c(OCc2cccc(-c3ccccc3)c2C)cc1OCc1cncc(C#N)c1` yielded an IC50 in [1] of 0.0022 µM.
In the case of `COc1nc(OCc2cccc(-c3ccccc3)c2C)ccc1CNCCNC(C)=O`, the MNTC at 24 h in series [4] and in [8] was 2560 nM throughout. For the same compound, the 50% growth inhibitory concentration (GI50) at 24 h in series [7] and in [13] was 4.5 µM throughout.
With `COc1nc(OCc2cccc(-c3cccc(COc4ccc(CNCCNC(C)=O)c(OC)n4)c3C)c2C)ccc1CNCCNC(C)=O`, the outcome in series [2] and in series [10] was Active. The selectivity ratio in series [3] amounted to 0.7; in series [5] it was 9.3; in [6], 0.7; in series [12], 9.3. The MNTC at 24 h in [4] and in series [8] was 2560 nM in each case. Also, the GI50 at 24 h in series [7] and in series [13] was 3.1 µM each time. For the same compound, the half-inhibitory concentration (IC50) in series [1] amounted to 0.025 µM. The concentration giving a half-maximal response (EC50) in [9] was determined as 4.21 µM; in series [11], 0.334 µM. The inhibition entry in series [14] was “Dose-dependent effect”.
Consider `CC(=O)NCCNCc1cc(C)c(OCc2cccc(-c3cccc(COc4cc(OCc5cncc(C#N)c5)c(CNCCNC(C)=O)cc4C)c3C)c2C)cc1OCc1cncc(C#N)c1`, for which the outcome in series [2] and in series [10] was Active. Also, the MNTC at 24 h in series [4] and in series [8] was 2560 nM each time. The concentration for 50% growth inhibition (GI50) at 24 h in [7] and in series [13] was 11.8 µM each time. Moreover, the inhibition entry in series [14] was “Dose-dependent effect”.
With `CC(=O)NCCNCc1ccc(OCc2ccc(COc3ccc(CNCCNC(C)=O)c(OCc4cncc(C#N)c4)c3)cc2)cc1OCc1cncc(C#N)c1`, the IC50 in [1] came out at 8.24 µM.
